Measured values taken from article PMC5218480 (PLoS ONE, 2017).

Test system: MV-4-11 cells
Experiment: Gene expression microarray analysis (Affymetrix PrimeView) and GSEA
Format: cell-based, human
Set-up: RFU PODN (11730768_x_at) / Fold change /veh PODN (11730768_x_at) / RFU LINC00158 (11744669_a_at) / Fold change /veh LINC00158 (11744669_a_at) / RFU DUSP10 (11751237_a_at) / Fold change /veh DUSP10 (11751237_a_at) / RFU ID3 (11757404_x_at) / Fold change /veh ID3 (11757404_x_at) / RFU PLEKHG5 (11737974_s_at) / Fold change /veh PLEKHG5 (11737974_s_at) / RFU LRRC4B (11730491_at) / Fold change /veh LRRC4B (11730491_at) / RFU GIMAP4 (11747438_a_at) / Fold change /veh GIMAP4 (11747438_a_at) / RFU KRT8 (11758183_x_at) / Fold change /veh KRT8 (11758183_x_at) / RFU CNN1 (11734310_a_at) / Fold change /veh CNN1 (11734310_a_at) / RFU VPS37D (11726825_at) / Fold change /veh VPS37D (11726825_at) / RFU C10orf10 (11716522_x_at) / Fold change /veh C10orf10 (11716522_x_at) / RFU KIR2DL2 /// KIR2DL4 /// KIR2DL5A /// KIR2DL5B /// KIR2DS1 /// KIR2DS2 /// KIR2DS3 /// KIR2DS4 /// KIR3DL3 /// KIR3DL3 /// KIR3DS1 (11738374_at) / Fold change /veh KIR2DL2 /// KIR2DL4 /// KIR2DL5A /// KIR2DL5B /// KIR2DS1 /// KIR2DS2 /// KIR2DS3 /// KIR2DS4 /// KIR3DL3 /// KIR3DL3 /// KIR3DS1 (11738374_at) / RFU C1QL1 (11718748_at) / Fold change /veh C1QL1 (11718748_at) / RFU TMPRSS4 (11747572_a_at) / Fold change /veh TMPRSS4 (11747572_a_at) / RFU HAMP (11756126_x_at) / Fold change /veh HAMP (11756126_x_at) / RFU RNFT2 (11725882_a_at) / Fold change /veh RNFT2 (11725882_a_at) / RFU NR4A2 (11747474_a_at) / Fold change /veh NR4A2 (11747474_a_at) / RFU ABCC12 (11746883_a_at) / Fold change /veh ABCC12 (11746883_a_at) / RFU TMEM136 (11760407_x_at) / Fold change /veh TMEM136 (11760407_x_at) / RFU CLDN22 /// WWC2 (11732394_at) / Fold change /veh CLDN22 /// WWC2 (11732394_at) / RFU HLA-DPB1 (11760878_x_at) / Fold change /veh HLA-DPB1 (11760878_x_at) / RFU SPINT1 (11716480_a_at) / Fold change /veh SPINT1 (11716480_a_at) / RFU GAP43 (11754022_s_at) / Fold change /veh GAP43 (11754022_s_at) / RFU A4GNT (11735810_at) / Fold change /veh A4GNT (11735810_at) / RFU PRB3 (11715151_x_at) / Fold change /veh PRB3 (11715151_x_at) / RFU TUBB4B (11761932_at) / Fold change /veh TUBB4B (11761932_at) / RFU CAPN14 (11732068_a_at) / Fold change /veh CAPN14 (11732068_a_at) / RFU TMCC2 (11721928_a_at) / Fold change /veh TMCC2 (11721928_a_at) / RFU IRGQ (11745062_a_at) / Fold change /veh IRGQ (11745062_a_at) / RFU FAM174B (11720279_a_at) / Fold change /veh FAM174B (11720279_a_at) / RFU TMPRSS4 (11748680_a_at) / Fold change /veh TMPRSS4 (11748680_a_at) / RFU FAM212B (11763350_a_at) / Fold change /veh FAM212B (11763350_a_at) / RFU PLEKHG5 (11743358_a_at) / Fold change /veh PLEKHG5 (11743358_a_at) / RFU ZSCAN30 (11745921_a_at) / Fold change /veh ZSCAN30 (11745921_a_at) / RFU CMKLR1 (11741424_a_at) / Fold change /veh CMKLR1 (11741424_a_at) / RFU LOC101060620 /// MAPK8IP1 (11723275_at) / Fold change /veh LOC101060620 /// MAPK8IP1 (11723275_at) / RFU SPTSSB (11747773_x_at) / Fold change /veh SPTSSB (11747773_x_at) / RFU PRSS12 (11739890_at) / Fold change /veh PRSS12 (11739890_at) / RFU BIN1 (11741810_x_at) / Fold change /veh BIN1 (11741810_x_at) / RFU WNT11 (11732464_a_at) / Fold change /veh WNT11 (11732464_a_at) / RFU C10orf10 (11716521_a_at) / Fold change /veh C10orf10 (11716521_a_at) / RFU C5orf56 (11738089_at) / Fold change /veh C5orf56 (11738089_at) / RFU CYB561 (11721691_x_at) / Fold change /veh CYB561 (11721691_x_at) / RFU ANKRD19P (11752326_a_at) / Fold change /veh ANKRD19P (11752326_a_at) / RFU OR2T12 /// OR2T33 /// OR2T8 (11738714_s_at) / Fold change /veh OR2T12 /// OR2T33 /// OR2T8 (11738714_s_at) / RFU VCAN (11748164_a_at) / Fold change /veh VCAN (11748164_a_at) / RFU JSRP1 (11732532_at) / Fold change /veh JSRP1 (11732532_at) / RFU KRTAP10-11 (11738290_x_at) / Fold change /veh KRTAP10-11 (11738290_x_at) / RFU MYO3A (11730013_a_at) / Fold change /veh MYO3A (11730013_a_at) / RFU EBF3 (11725865_a_at) / Fold change /veh EBF3 (11725865_a_at) / RFU CAMK2N1 (11719241_x_at) / Fold change /veh CAMK2N1 (11719241_x_at) / RFU C5orf56 (11738088_a_at) / Fold change /veh C5orf56 (11738088_a_at) / RFU OLFML3 (11715873_a_at) / Fold change /veh OLFML3 (11715873_a_at) / RFU LOC100653217 /// NTM (11731650_a_at) / Fold change /veh LOC100653217 /// NTM (11731650_a_at) / RFU MAPK11 (11762145_a_at) / Fold change /veh MAPK11 (11762145_a_at) / RFU FIZ1 (11724087_x_at) / Fold change /veh FIZ1 (11724087_x_at) / RFU OASL (11726364_x_at) / Fold change /veh OASL (11726364_x_at) / RFU SOX15 (11748057_x_at) / Fold change /veh SOX15 (11748057_x_at) / RFU CD79A (11719716_a_at) / Fold change /veh CD79A (11719716_a_at) / RFU HIST1H1D (11736915_at) / Fold change /veh HIST1H1D (11736915_at) / RFU CASKIN2 (11723855_a_at) / Fold change /veh CASKIN2 (11723855_a_at) / RFU LOC730098 (11760151_x_at) / Fold change /veh LOC730098 (11760151_x_at) / RFU OR4N2 (11742367_at) / Fold change /veh OR4N2 (11742367_at) / RFU PRRT2 (11749266_a_at) / Fold change /veh PRRT2 (11749266_a_at) / RFU SNX32 (11753110_a_at) / Fold change /veh SNX32 (11753110_a_at) / RFU CDHR5 (11726645_a_at) / Fold change /veh CDHR5 (11726645_a_at) / RFU RCAN1 (11760418_a_at) / Fold change /veh RCAN1 (11760418_a_at) / RFU FAM167A (11723789_a_at) / Fold change /veh FAM167A (11723789_a_at) / RFU FAM26E (11764081_at) / Fold change /veh FAM26E (11764081_at) / RFU ISYNA1 (11749810_s_at) / Fold change /veh ISYNA1 (11749810_s_at) / RFU ACY1 (11761880_at) / Fold change /veh ACY1 (11761880_at) / RFU 11764098_at / Fold change /veh 11764098_at / RFU SAMD14 (11745864_x_at) / Fold change /veh SAMD14 (11745864_x_at) / RFU NPB (11741838_a_at) / Fold change /veh NPB (11741838_a_at) / RFU TMPRSS6 (11731388_a_at) / Fold change /veh TMPRSS6 (11731388_a_at) / RFU KRTAP10-2 (11738614_at) / Fold change /veh KRTAP10-2 (11738614_at) / RFU ARHGAP8 /// PRR5-ARHGAP8 (11727945_x_at) / Fold change /veh ARHGAP8 /// PRR5-ARHGAP8 (11727945_x_at) / RFU KRTAP5-7 /// NADSYN1 (11734609_at) / Fold change /veh KRTAP5-7 /// NADSYN1 (11734609_at) / RFU RASL12 (11751679_a_at) / Fold change /veh RASL12 (11751679_a_at) / RFU CDKN2B (11736163_a_at) / Fold change /veh CDKN2B (11736163_a_at) / RFU PRF1 (11729649_at) / Fold change /veh PRF1 (11729649_at) / RFU, ZNF638 /// ZNF638-IT1 / Fold change vs veh, ZNF638 /// ZNF638-IT1 / RFU, PANK3 / Fold change vs veh, PANK3 / RFU, SH3YL1 / Fold change vs veh, SH3YL1 / RFU, ZEB2 / Fold change vs veh, ZEB2 / RFU, NRIP1 / Fold change vs veh, NRIP1 / RFU, PTTG1IP / Fold change vs veh, PTTG1IP / RFU, CAPN2 / Fold change vs veh, CAPN2 / RFU, MED14 / Fold change vs veh, MED14 / RFU, SNORA58 / Fold change vs veh, SNORA58 / RFU, C1orf63 / Fold change vs veh, C1orf63 / RFU, LRRFIP1 / Fold change vs veh, LRRFIP1 / RFU, NDUFAF7 / Fold change vs veh, NDUFAF7 / RFU, SLC12A2 / Fold change vs veh, SLC12A2 / RFU, IBTK / Fold change vs veh, IBTK / RFU, ESF1 / Fold change vs veh, ESF1 / Fold change vs veh, TMEM50B / RFU, TAOK1 / Fold change vs veh, TAOK1 / RFU, ACBD3 / Fold change vs veh, ACBD3 / RFU, TMA16 / Fold change vs veh, TMA16 / RFU, RWDD3 / Fold change vs veh, RWDD3 / RFU, BCAT1 / Fold change vs veh, BCAT1 / RFU, EDEM3 / Fold change vs veh, EDEM3 / RFU, TMEM33 / Fold change vs veh, TMEM33 / RFU, WDR75 / Fold change vs veh, WDR75 / RFU, AHCTF1 / Fold change vs veh, AHCTF1 / RFU, TFRC / Fold change vs veh, TFRC / RFU, ZDHHC17 / Fold change vs veh, ZDHHC17 / RFU, NOM1 / Fold change vs veh, NOM1 / RFU, ARL8B / Fold change vs veh, ARL8B / RFU, ZBTB11 / Fold change vs veh, ZBTB11 / RFU, TAMM41 / Fold change vs veh, TAMM41 / RFU, KIAA1704 /// LOC100996395 / Fold change vs veh, KIAA1704 /// LOC100996395 / RFU, ING1 / Fold change vs veh, ING1 / RFU, TRMT61B / Fold change vs veh, TRMT61B / RFU, FUBP3 / Fold change vs veh, FUBP3 / RFU, TP53 / Fold change vs veh, TP53 / RFU, TNKS2 / Fold change vs veh, TNKS2 / RFU, ZFP14 / Fold change vs veh, ZFP14 / RFU, ACTR2 / Fold change vs veh, ACTR2 / RFU, PPP3R1 / Fold change vs veh, PPP3R1 / RFU, PIK3R1 / Fold change vs veh, PIK3R1 / RFU, HNRNPA1 / Fold change vs veh, HNRNPA1 / RFU, RNF170 / Fold change vs veh, RNF170 / RFU, ZNF28 / Fold change vs veh, ZNF28 / RFU, RNGTT / Fold change vs veh, RNGTT / RFU, OGT / Fold change vs veh, OGT / RFU, BRD1 / Fold change vs veh, BRD1 / RFU, MARS / Fold change vs veh, MARS / RFU, ZNF655 / Fold change vs veh, ZNF655 / RFU, FAHD1 / Fold change vs veh, FAHD1 / RFU, BDP1 / Fold change vs veh, BDP1 / RFU, LRRCC1 / Fold change vs veh, LRRCC1 / RFU, ARID1A / Fold change vs veh, ARID1A / RFU, ZNF146 / Fold change vs veh, ZNF146 / RFU, ZNF330 / Fold change vs veh, ZNF330 / RFU, GPN3 / Fold change vs veh, GPN3 / RFU, C9orf123 / Fold change vs veh, C9orf123 / RFU, N4BP2L2 / Fold change vs veh, N4BP2L2 / RFU, ARFIP1 / Fold change vs veh, ARFIP1 / RFU, FAM179B / Fold change vs veh, FAM179B / RFU, BCL10 / Fold change vs veh, BCL10 / RFU, UHRF1BP1L / Fold change vs veh, UHRF1BP1L / RFU, BET1 / Fold change vs veh, BET1 / RFU, CNOT2 / Fold change vs veh, CNOT2 / RFU, ZNF268 / Fold change vs veh, ZNF268 / Fold change vs veh, ZNF507 / RFU, DGCR2 / Fold change vs veh, DGCR2 / RFU, WDSUB1 / Fold change vs veh, WDSUB1 / Fold change vs veh, HSP90B1 /// MIR3652 / RFU, ADSS / Fold change vs veh, ADSS / RFU, GK / Fold change vs veh, GK / RFU, ZNF148 / Fold change vs veh, ZNF148 / RFU, TAF9 / Fold change vs veh, TAF9 / RFU, SLC1A5 / Fold change vs veh, SLC1A5 / RFU, SLMO2 / Fold change vs veh, SLMO2 / RFU, ABCC4 / Fold change vs veh, ABCC4 / RFU, LOC101060439 /// RAP1B / Fold change vs veh, LOC101060439 /// RAP1B / RFU, RFX7 / Fold change vs veh, RFX7 / RFU, GTPBP10 / Fold change vs veh, GTPBP10 / RFU, CNEP1R1 / Fold change vs veh, CNEP1R1 / RFU, BIVM-ERCC5 /// ERCC5 / Fold change vs veh, BIVM-ERCC5 /// ERCC5 / RFU, ILF3 / Fold change vs veh, ILF3 / RFU 11762660_at / Fold change /veh 11762660_at / RFU VCAN (11757783_s_at) / Fold change /veh VCAN (11757783_s_at) / RFU DDX43 (11728927_at) / Fold change /veh DDX43 (11728927_at) / RFU KRT8 (11758188_x_at) / Fold change /veh KRT8 (11758188_x_at) / RFU NKD1 (11759106_at) / Fold change /veh NKD1 (11759106_at) / RFU SRD5A1 (11742802_a_at) / Fold change /veh SRD5A1 (11742802_a_at) / RFU TPSAB1 /// TPSB2 (11721975_s_at) / Fold change /veh TPSAB1 /// TPSB2 (11721975_s_at) / RFU GSTM3 (11746129_a_at) / Fold change /veh GSTM3 (11746129_a_at) / RFU IL23R (11737362_x_at) / Fold change /veh IL23R (11737362_x_at) / RFU TMEM51 (11727254_a_at) / Fold change /veh TMEM51 (11727254_a_at) / RFU PIWIL2 (11732686_x_at) / Fold change /veh PIWIL2 (11732686_x_at) / RFU ORM1 (11744905_x_at) / Fold change /veh ORM1 (11744905_x_at) / RFU CCDC152 (11743942_at) / Fold change /veh CCDC152 (11743942_at) / RFU ECM1 (11717891_a_at) / Fold change /veh ECM1 (11717891_a_at) / RFU IL23R (11748794_a_at) / Fold change /veh IL23R (11748794_a_at) / RFU TNFAIP8L3 (11732012_x_at) / Fold change /veh TNFAIP8L3 (11732012_x_at) / RFU MBOAT4 (11741988_at) / Fold change /veh MBOAT4 (11741988_at) / RFU 11764193_at / Fold change /veh 11764193_at / RFU TMEM53 (11763286_at) / Fold change /veh TMEM53 (11763286_at) / RFU MAGEB2 (11727129_at) / Fold change /veh MAGEB2 (11727129_at) / RFU TMEM200A (11744735_a_at) / Fold change /veh TMEM200A (11744735_a_at) / RFU CCDC152 (11751479_a_at) / Fold change /veh CCDC152 (11751479_a_at) / RFU FAM211A (11726209_a_at) / Fold change /veh FAM211A (11726209_a_at) / RFU RGS16 (11746705_a_at) / Fold change /veh RGS16 (11746705_a_at) / RFU VCAN (11755009_s_at) / Fold change /veh VCAN (11755009_s_at) / RFU RHOB (11743442_s_at) / Fold change /veh RHOB (11743442_s_at) / RFU RGS16 (11720943_a_at) / Fold change /veh RGS16 (11720943_a_at) / RFU RGS16 (11720944_at) / Fold change /veh RGS16 (11720944_at) / RFU, VPS4B / Fold change vs veh, VPS4B / RFU, CREB1 / Fold change vs veh, CREB1 / RFU, DNAJC13 / Fold change vs veh, DNAJC13 / RFU, GNAQ / Fold change vs veh, GNAQ / RFU, CDK5R1 / Fold change vs veh, CDK5R1 / RFU, ZRANB3 / Fold change vs veh, ZRANB3 / RFU, CUL4A / Fold change vs veh, CUL4A / RFU, CCNY / Fold change vs veh, CCNY / RFU, UFL1 / Fold change vs veh, UFL1 / RFU, COG3 / Fold change vs veh, COG3 / RFU, DIAPH2 / Fold change vs veh, DIAPH2 / RFU, SKA2 / Fold change vs veh, SKA2 / RFU, AFF3 / Fold change vs veh, AFF3 / RFU, LMF1 / Fold change vs veh, LMF1 / RFU, IPO11 / Fold change vs veh, IPO11 / RFU, DFFB / Fold change vs veh, DFFB / RFU, FOXP1 / Fold change vs veh, FOXP1 / RFU, CARD8 / Fold change vs veh, CARD8 / RFU, STRN3 / Fold change vs veh, STRN3 / RFU, ADK / Fold change vs veh, ADK / RFU, RASSF2 / Fold change vs veh, RASSF2 / RFU, WIPF1 / Fold change vs veh, WIPF1 / RFU, LARP1B / Fold change vs veh, LARP1B / RFU, RASA1 / Fold change vs veh, RASA1 / RFU, RB1 / Fold change vs veh, RB1 / RFU, PPFIA1 / Fold change vs veh, PPFIA1 / RFU, MAT2A / Fold change vs veh, MAT2A / RFU, CCT5 / Fold change vs veh, CCT5 / RFU, WDR92 / Fold change vs veh, WDR92 / RFU, CUX1 / Fold change vs veh, CUX1 / RFU, TTC7A / Fold change vs veh, TTC7A / RFU, TMEM135 / Fold change vs veh, TMEM135 / RFU, DEPTOR / Fold change vs veh, DEPTOR / RFU, CPM / Fold change vs veh, CPM / RFU, DNAJB6 / Fold change vs veh, DNAJB6 / RFU, CACNA2D3 / Fold change vs veh, CACNA2D3 / RFU, DTX4 / Fold change vs veh, DTX4 / RFU, TFCP2 / Fold change vs veh, TFCP2 / RFU, GMCL1 /// GMCL1P1 / Fold change vs veh, GMCL1 /// GMCL1P1 / RFU, AEBP2 / Fold change vs veh, AEBP2 / RFU, SNHG1 /// SNORD22 /// SNORD25 /// SNORD26 /// SNORD27 /// SNORD28 /// SNORD29 /// SNORD31 / Fold change vs veh, SNHG1 /// SNORD22 /// SNORD25 /// SNORD26 /// SNORD27 /// SNORD28 /// SNORD29 /// SNORD31 / Fold change (Aza/veh), C12orf56 (ProbeSet 11735607_a_at) / Fold change (ACY-1035/veh), C12orf56 (ProbeSet 11735607_a_at) / Fold change (Aza/veh), FGFR1OP (ProbeSet 11751329_s_at) / Fold change (ACY-1035/veh), FGFR1OP (ProbeSet 11751329_s_at) / Fold change (Aza/veh), VPS36 (ProbeSet 11739960_a_at) / Fold change (ACY-1035/veh), VPS36 (ProbeSet 11739960_a_at) / RFU SYPL1 (11715823_x_at) / Fold change /veh SYPL1 (11715823_x_at) / RFU IGFBP7 (11715501_s_at) / Fold change /veh IGFBP7 (11715501_s_at) / RFU REEP3 (11722064_at) / Fold change /veh REEP3 (11722064_at) / RFU IGLL1 (11728026_x_at) / Fold change /veh IGLL1 (11728026_x_at): dose or concentration left out as unconfirmed
Conditions: ProbeSet 11719493_s_at; LIST B

Nc1ccc(-c2cccs2)cc1NC(=O)c1ccc2c(c1)cc(C1CC1)n2CCN1CCOCC1 [ACY-1035]
Fold change vs veh, TAF9: 0.84
